Measurements: the SangsterLogP compilation

In order of rising logP:
1. CC(=O)c1ccc(NCc2cnc3nc(N)nc(N)c3c2C)cc1  1.45
2. CC(=O)c1cccc(NCc2cnc3nc(N)nc(N)c3c2C)c1  1.46
3. Cc1ccccc1NCc1cnc2nc(N)nc(N)c2c1C  1.98
4. Cc1c(CNc2c(Cl)cccc2Cl)cnc2nc(N)nc(N)c12  2
5. Cc1c(CNc2ccccc2)cnc2nc(N)nc(N)c12  2.02
6. Cc1c(CNc2ccc(Cl)cc2)cnc2nc(N)nc(N)c12  2.03
7. Cc1ccc(NCc2cnc3nc(N)nc(N)c3c2C)cc1Cl  2.03
8. Cc1cc(NCc2cnc3nc(N)nc(N)c3c2C)ccc1Cl  2.03
9. Cc1c(Cl)cccc1NCc1cnc2nc(N)nc(N)c2c1C  2.04
10. Cc1cccc(Cl)c1NCc1cnc2nc(N)nc(N)c2c1C  2.05
11. Cc1c(CNc2ccc(Cl)c(Cl)c2)cnc2nc(N)nc(N)c12  2.06
12. CCOc1ccccc1NCc1cnc2nc(N)nc(N)c2c1C  2.07
13. Cc1c(CNc2cccc(Cl)c2Cl)cnc2nc(N)nc(N)c12  2.1
14. Cc1cc(C)cc(NCc2cnc3nc(N)nc(N)c3c2C)c1  2.11
15. Cc1ccc(C)c(NCc2cnc3nc(N)nc(N)c3c2C)c1  2.29
